Laboratory results published in patent publication US20110020312A1, “METHODS FOR TREATMENT OF METABOLIC DISORDERS USING EPIMETABOLIC SHIFTERS, MULTIDIMENSIONAL INTRACELLULAR MOLECULES, OR ENVIRONMENTAL INFLUENCERS” (priority 2009, published 2011).

How the values were obtained:
[1] = system: PaCa2 cells; assay: Nexin assay for apoptosis (Annexin-V-PE/7-AAD flow cytometry), 24 h Q10; type: cell-based; conditions: 50 μM Q10 and 100 μM Q10, 24 hours
From the text: The 7AAD dye will enter into cells with permeabilized cell membranes; primarily those cells that are in late apoptosis. Annexin-V-PE is a dye that binds to Phosphotidyl serine, which is exposed on the outer surface of the plasma membrane in early apoptotic cells. The Nexin reagent thus can be used to differentiate between different populations of apoptotic cells in a flow cytometer.

[2] = system: PaCa-2 cells; assay: Extracellular acidification rate (ECAR), SeaHorse XF analyzer; type: cell-based; conditions: normoxia, high glucose (17 mM)
From the text: Environmental influencers (e.g., MIMs or Epi-shifters) may also be identified by changes in cellular energetics. One example of the measurement of cellular energetics are the real-time measures of the consumption of molecular oxygen and/or the change in pH of the media of a cell culture. For example, the ability of a potential epi-shifter to modulate the metabolic state of a cell may be analyzed using, for example, the XF24 Analyzer (Seahorse, Inc.). This technology allows for real time detection of oxygen and pH changes in a monolayer of cells in order to evaluate the bioenergetics of a cell microenvironment. The XF24 Analyzer measures and compares the rates of oxygen consumption (OCR), which is a measure of aerobic metabolism, and extracellular acidification (ECAR), which is a measure of glycolysis, both key indicators of cellular energetics.
(SeaHorse Biosciences Inc, North Billerica, Mass.).
In contrast to normal cells, cancer cells are phenotypically primed to use high glucose for ATP generation (enhanced glycolysis) resulting in higher ECAR (Table 53, ECAR for untreated normoxia 17 mM) at 21 mpH/min. […] The associated decrease in OCR in these cells was likely associated with increased efficiency of the mitochondrial OXPHOS.

For `COC1=C(OC)C(=O)C(C/C=C(\C)CC/C=C(\C)CC/C=C(\C)CC/C=C(\C)CC/C=C(\C)CC/C=C(\C)CC/C=C(\C)CC/C=C(\C)CC/C=C(\C)CCC=C(C)C)=C(C)C1=O` [Q10, Coenzyme Q10], the “increase in both early and late apoptotic cells” value [1] was 5-10 % of gated cells and the ECAR rates [2] was “significant decrease”.
